US10828372B2, “Compositions and methods for the inhibition of fibrosis” (WISCONSIN ALUMNI RESEARCH FOUNDATION, priority 2017, dated 2020)
“And” between values parts separate entries of the source, which are not always exact repeats. Identical values can stand only once. Where no end group is shown, it is not given here.

Key:
[1] = test system: Alexa 488-labeled human plasma FN; assay: Matrix Assembly in vitro Assay (MAA), A488-FN deposition by AH1F fibroblasts; assay type: cell-based; conditions: 24 hours, viability-normalized fluorescence, n=4, FUD run alongside each conjugate
Procedure: Matrix Assembly Assay: The matrix assembly assay was conducted in the 96-well plate format as described in the art. AH1F human skin fibroblast cells resuspended in 2% fetal bovine serum were added to each well for a density of 60,000 cells per well. A 1 hr incubation period at 37° C. followed to allow cell adhesion and spreading. FUD, PEG-FUD, or PEG-mFUD were added to each well following incubation. Immediately, Alexa Fluor® 488 fluorescence labeled human plasma fibronectin (A488-FN) was then added to each well for a final FN concentration of 11 μg/mL. The cells were then incubated for 24 hours at 37° C. Non-assembled FN was removed from each well by washing with Hank's Balanced Salt Solution (HBSS) containing Ca^2+ and Mg^2+. The well volume was restored to 60 μL with HBSS and a fluorescence reading from the bottom of each well was taken using a Synergy™ H1 (Biotek) plate reader (excitation: 485 nm, Emission: 538 nm). Cell viability was quantified using CellTiter-Glo® cell viability assay using the manufacturer's protocol. A 30 μL aliquot of HBSS was removed from each well and was replaced with 30 μL of the luminescence reagent prepared shortly beforehand. Luminescence was quantified using the same plate reader. The average of fluorescence values of a no A488FN or inhibitor control group were routinely subtracted from the readings of each well and were normalized using each well's corresponding luminescence value. Lastly, the cell viability normalized fluorescence values were expressed as a percentage of the 0 nM drug control group. The final results were processed using Graphpad Prism 7.0 software. IC50 values were extracted using a four-parameter dose-response curve function. Student's t test was used to determine significance of differences among peptides at a given drug concentration.
The PEG-FUD FN fibrillogenesis inhibitory performance was evaluated in vitro using the matrix assembly assay (MAA). The methodology of this assay is depicted in FIG. 8. The MAA quantifies ECM deposition of exogenous AlexaFluor® 488-labeled FN (A488FN) by a confluent monolayer of fibroblasts after an incubation period by measuring fluorescence of deposited FN. In this study, the performance of PEG-FUD peptides was compared to that of FUD and the PEG-mFUD control peptide using the AH1F human foreskin fibroblast cell line.

[2] = Bleomycin model: PEG-FUD organ accumulation (Western blot, ex vivo fluorescence imaging); assay type: in vivo, mouse; conditions: day 3-13 s.c. injection, bleomycin-injured vs uninjured (NS) lungs
Procedure: Separately, on day three post-bleomycin treatment, another animal set was treated with a single SC dose of PEG-FUD mixed with 25% Cy5-fluorophore labeled PEG-FUD or fully unlabeled PEG-FUD control (12.5 mg/kg). These mice were sacrificed seven days post-bleomycin treatment and their lungs, kidneys and livers imaged ex vivo using the fluorescence protocol on In Vivo Imaging System.
Western blot: Homogenized lung tissue was lysed for protein using 5% SDS/5 M Urea lysing buffer. The lysates were sonicated and boiled for 5 min prior to being subject to electrophoresis on polyacrylamide gels at 400 V for 2 hours and transferred at 100 V for 2.5 hours. Membranes were blotted with in-house made anti-FUD antibody produced in rabbit (0.7 μg/ml suspended in 2% bovine serum albumin) or β-actin housekeeping antibody produced in mouse (Sigma-Aldrich, 2 μg/ml suspended in 2% bovine serum albumin) and corresponding HRP-conjugated secondary antibody (1:3000). Blots were developed using an enhanced chemiluminescence (ECL) reaction (GE) and imaged on GE LAS4000 chemiluminescence imager to obtain images below the saturated threshold. […]
In Vivo Imaging System: Lungs, livers and kidneys of mice treated with bleomycin or NS and a single dose of SC Cy5-PEG-FUD or unlabeled PEG-FUD were imaged using the fluorescence protocol in the In Vivo Imaging System. […]

Sequence of Alexa 488-labeled human plasma FN (P02751 32-608 limits assumed): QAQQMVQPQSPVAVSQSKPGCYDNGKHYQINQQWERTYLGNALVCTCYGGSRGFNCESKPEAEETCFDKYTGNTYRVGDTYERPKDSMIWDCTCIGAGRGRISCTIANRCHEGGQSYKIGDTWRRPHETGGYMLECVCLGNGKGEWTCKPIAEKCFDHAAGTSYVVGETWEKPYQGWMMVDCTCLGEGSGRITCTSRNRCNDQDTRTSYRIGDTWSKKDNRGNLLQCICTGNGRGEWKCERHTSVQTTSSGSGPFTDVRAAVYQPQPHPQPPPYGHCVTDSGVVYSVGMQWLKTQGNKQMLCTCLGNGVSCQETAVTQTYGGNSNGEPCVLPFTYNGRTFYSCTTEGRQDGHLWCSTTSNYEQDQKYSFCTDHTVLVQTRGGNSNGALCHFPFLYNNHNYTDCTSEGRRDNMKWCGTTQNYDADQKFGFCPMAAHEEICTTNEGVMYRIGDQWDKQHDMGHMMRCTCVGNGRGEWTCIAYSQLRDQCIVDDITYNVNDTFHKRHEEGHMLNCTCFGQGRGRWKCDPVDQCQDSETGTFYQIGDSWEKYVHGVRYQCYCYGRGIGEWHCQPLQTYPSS

Substance | IC50 [1] | PEG-FUD accumulation in lungs (Western blot) [2]
FUD: 49 amino acid FUD peptide, SEQ ID NO: 1, recombinantly expressed, His-tag removed; inhibitor of fibronectin fibrillogenesis (KDQSPLAGESGETEYITEVYGNQQNPVDIDKKLPNETGFSGNMVETEDT; human) [reference compound] | 13 nM and 26 nM and 19 nM | –
PEG-FUD: PEGylated FUD prepared as in Example 1, PEG size not stated; approximately 27 kDa by mass spectrometry, likely the 20 kDa conjugate (KDQSPLAGESGETEYITEVYGNQQNPVDIDKKLPNETGFSGNMVETEDT; not fully specified (N-terminus); also: PEG size not given here) | – | striking increase in PEG-FUD accumulation in bleomycin-injured lungs
